Experimental data taken from PubChem BioAssay (NCI).
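How tested: cells in 96-well plates exposed to compound for 48 hours at five concentrations. The concentration for full growth arrest is given as TGI.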

Key:
Assay in all cases: growth of human tumour cells (NCI), 48 h
RPMI-8226 leukemia = tested on: RPMI-8226 leukemia
XF 498 CNS = tested on: XF 498 CNS
786-0 renal = tested on: 786-0 renal
HL-60(TB) leukemia = tested on: HL-60(TB) leukemia
SK-MEL-5 melanoma = tested on: SK-MEL-5 melanoma
SK-MEL-28 melanoma = tested on: SK-MEL-28 melanoma
HOP-62 NSCLC = tested on: HOP-62 NSCLC
LOX IMVI melanoma = tested on: LOX IMVI melanoma
CCRF-CEM leukemia = tested on: CCRF-CEM leukemia
COLO 205 colon = tested on: COLO 205 colon
SK-MEL-2 melanoma = tested on: SK-MEL-2 melanoma
SK-OV-3 ovarian = tested on: SK-OV-3 ovarian
HCT-116 colon = tested on: HCT-116 colon
NCI-H226 lung = tested on: NCI-H226 lung
OVCAR-8 ovarian = tested on: OVCAR-8 ovarian
A549 NSCLC = tested on: A549 NSCLC
NCI-H460 lung = tested on: NCI-H460 lung
DLD-1 colon = tested on: DLD-1 colon
HT29 colon = tested on: HT29 colon
A498 renal = tested on: A498 renal
UO-31 renal = tested on: UO-31 renal
SF-539 CNS = tested on: SF-539 CNS
SNB-78 CNS = tested on: SNB-78 CNS
KM12 colon = tested on: KM12 colon
UACC-257 melanoma = tested on: UACC-257 melanoma
MOLT-4 leukemia = tested on: MOLT-4 leukemia
DMS 273 small cell lung = tested on: DMS 273 small cell lung
NCI-H23 lung = tested on: NCI-H23 lung
HCC-2998 colon = tested on: HCC-2998 colon
TK-10 renal = tested on: TK-10 renal
OVCAR-3 ovarian = tested on: OVCAR-3 ovarian
SW-620 colon = tested on: SW-620 colon
UACC-62 melanoma = tested on: UACC-62 melanoma
M14 melanoma = tested on: M14 melanoma
EKVX NSCLC = tested on: EKVX NSCLC
K-562 leukemia = tested on: K-562 leukemia
HCT-15 colon = tested on: HCT-15 colon
SN12C renal = tested on: SN12C renal
SF-295 CNS = tested on: SF-295 CNS
IGROV1 ovarian = tested on: IGROV1 ovarian
DMS 114 small cell lung = tested on: DMS 114 small cell lung
LXFL 529 NSCLC = tested on: LXFL 529 NSCLC
CAKI-1 renal = tested on: CAKI-1 renal
SF-268 CNS = tested on: SF-268 CNS
SNB-19 CNS = tested on: SNB-19 CNS
NCI-H522 lung = tested on: NCI-H522 lung
ACHN renal = tested on: ACHN renal
M19-MEL melanoma = tested on: M19-MEL melanoma
SNB-75 CNS = tested on: SNB-75 CNS
MALME-3M melanoma = tested on: MALME-3M melanoma
OVCAR-5 ovarian = tested on: OVCAR-5 ovarian
KM20L2 colon = tested on: KM20L2 colon
U251 CNS = tested on: U251 CNS
RXF 393 renal = tested on: RXF 393 renal
OVCAR-4 ovarian = tested on: OVCAR-4 ovarian
SR leukemia = tested on: SR leukemia
HOP-18 NSCLC = tested on: HOP-18 NSCLC
HOP-92 NSCLC = tested on: HOP-92 NSCLC

With `COC(=O)[C@@H]1c2[nH]c3ccccc3c2C[C@@H]2c3ccccc3NC(=O)[C@@H]21` the TGI (RPMI-8226 leukemia) was greater than 100 µM, the TGI (XF 498 CNS) was greater than 100 µM and the TGI (786-0 renal) was greater than 100 µM. The TGI (HL-60(TB) leukemia) was greater than 100 µM, the TGI (SK-MEL-5 melanoma) was greater than 100 µM and the TGI (SK-MEL-28 melanoma) was greater than 100 µM. For the same compound, the TGI (HOP-62 NSCLC) was 54.3 µM, the TGI (LOX IMVI melanoma) was greater than 100 µM and the TGI (CCRF-CEM leukemia) was greater than 100 µM. The TGI (COLO 205 colon) was greater than 100 µM, the TGI (SK-MEL-2 melanoma) was greater than 100 µM and the TGI (SK-OV-3 ovarian) was greater than 100 µM. For the same compound, the TGI (HCT-116 colon) was greater than 100 µM, the TGI (NCI-H226 lung) was greater than 60.8 µM and the TGI (OVCAR-8 ovarian) was greater than 100 µM. The TGI (A549 NSCLC) was greater than 100 µM, the TGI (NCI-H460 lung) was greater than 100 µM and the TGI (DLD-1 colon) was greater than 100 µM. It also gave a TGI (HT29 colon) greater than 100 µM, a TGI (A498 renal) greater than 100 µM and a TGI (UO-31 renal) greater than 100 µM. The TGI (SF-539 CNS) was greater than 100 µM, the TGI (SNB-78 CNS) was greater than 100 µM and the TGI (KM12 colon) was greater than 100 µM. It also gave a TGI (UACC-257 melanoma) greater than 100 µM, a TGI (MOLT-4 leukemia) greater than 100 µM and a TGI (DMS 273 small cell lung) greater than 100 µM. It also gave a TGI (NCI-H23 lung) greater than 100 µM, a TGI (HCC-2998 colon) greater than 100 µM and a TGI (TK-10 renal) greater than 100 µM. For the same compound, the TGI (OVCAR-3 ovarian) was greater than 100 µM, the TGI (SW-620 colon) was greater than 100 µM and the TGI (UACC-62 melanoma) was greater than 100 µM. It also gave a TGI (M14 melanoma) greater than 100 µM, a TGI (EKVX NSCLC) greater than 100 µM and a TGI (K-562 leukemia) greater than 100 µM. For the same compound, the TGI (HCT-15 colon) was greater than 100 µM, the TGI (SN12C renal) was greater than 100 µM and the TGI (SF-295 CNS) was greater than 31.6 µM. For the same compound, the TGI (IGROV1 ovarian) was greater than 100 µM, the TGI (DMS 114 small cell lung) was greater than 100 µM and the TGI (LXFL 529 NSCLC) was greater than 100 µM. For the same compound, the TGI (CAKI-1 renal) was greater than 100 µM, the TGI (SF-268 CNS) was greater than 31.6 µM and the TGI (SNB-19 CNS) was greater than 100 µM. For the same compound, the TGI (NCI-H522 lung) was greater than 100 µM, the TGI (ACHN renal) was greater than 100 µM and the TGI (M19-MEL melanoma) was greater than 100 µM. It also gave a TGI (SNB-75 CNS) of 60.6 µM, a TGI (MALME-3M melanoma) greater than 100 µM and a TGI (OVCAR-5 ovarian) greater than 100 µM. The TGI (KM20L2 colon) was greater than 100 µM, the TGI (U251 CNS) was greater than 100 µM and the TGI (RXF 393 renal) was greater than 100 µM.

`CN(C)N=Nc1cn[nH]c1C(N)=O` showed a TGI (RPMI-8226 leukemia) greater than 100 µM, a TGI (XF 498 CNS) greater than 100 µM and a TGI (786-0 renal) greater than 100 µM. The TGI (HL-60(TB) leukemia) was greater than 100 µM, the TGI (SK-MEL-5 melanoma) was greater than 100 µM and the TGI (SK-MEL-28 melanoma) was greater than 100 µM. For the same compound, the TGI (HOP-62 NSCLC) was greater than 100 µM, the TGI (LOX IMVI melanoma) was greater than 100 µM and the TGI (OVCAR-4 ovarian) was greater than 100 µM. For the same compound, the TGI (CCRF-CEM leukemia) was greater than 100 µM, the TGI (COLO 205 colon) was greater than 100 µM and the TGI (SK-MEL-2 melanoma) was greater than 100 µM. It also gave a TGI (SK-OV-3 ovarian) greater than 100 µM, a TGI (HCT-116 colon) greater than 100 µM and a TGI (NCI-H226 lung) greater than 100 µM. The TGI (OVCAR-8 ovarian) was greater than 100 µM, the TGI (A549 NSCLC) was greater than 100 µM and the TGI (NCI-H460 lung) was greater than 100 µM. For the same compound, the TGI (DLD-1 colon) was greater than 100 µM, the TGI (HT29 colon) was greater than 100 µM and the TGI (A498 renal) was greater than 100 µM. For the same compound, the TGI (SF-539 CNS) was greater than 100 µM, the TGI (KM12 colon) was greater than 100 µM and the TGI (SR leukemia) was greater than 100 µM. It also gave a TGI (UACC-257 melanoma) greater than 100 µM, a TGI (MOLT-4 leukemia) greater than 100 µM and a TGI (DMS 273 small cell lung) greater than 100 µM. The TGI (NCI-H23 lung) was greater than 100 µM, the TGI (HCC-2998 colon) was greater than 100 µM and the TGI (TK-10 renal) was greater than 100 µM. It also gave a TGI (OVCAR-3 ovarian) greater than 100 µM, a TGI (SW-620 colon) greater than 100 µM and a TGI (UACC-62 melanoma) of 93.3 µM. The TGI (M14 melanoma) was greater than 100 µM, the TGI (EKVX NSCLC) was greater than 100 µM and the TGI (K-562 leukemia) was greater than 100 µM. It also gave a TGI (HOP-18 NSCLC) greater than 100 µM, a TGI (HCT-15 colon) greater than 100 µM and a TGI (SN12C renal) greater than 100 µM. For the same compound, the TGI (SF-295 CNS) was greater than 100 µM, the TGI (IGROV1 ovarian) was greater than 100 µM and the TGI (DMS 114 small cell lung) was greater than 100 µM. For the same compound, the TGI (HOP-92 NSCLC) was greater than 100 µM, the TGI (LXFL 529 NSCLC) was greater than 100 µM and the TGI (CAKI-1 renal) was greater than 100 µM. The TGI (SF-268 CNS) was greater than 100 µM, the TGI (SNB-19 CNS) was greater than 100 µM and the TGI (NCI-H522 lung) was greater than 100 µM. It also gave a TGI (ACHN renal) greater than 100 µM, a TGI (M19-MEL melanoma) greater than 100 µM and a TGI (SNB-75 CNS) greater than 100 µM. The TGI (MALME-3M melanoma) was greater than 100 µM, the TGI (OVCAR-5 ovarian) was greater than 100 µM and the TGI (KM20L2 colon) was greater than 100 µM. The TGI (U251 CNS) was greater than 100 µM.

Compound `Cc1c(C)n(COCCO)c2ncnc(N)c12` has a TGI (RPMI-8226 leukemia) greater than 100 µM, a TGI (XF 498 CNS) greater than 100 µM and a TGI (786-0 renal) greater than 100 µM. For the same compound, the TGI (HL-60(TB) leukemia) was greater than 100 µM, the TGI (SK-MEL-5 melanoma) was greater than 100 µM and the TGI (SK-MEL-28 melanoma) was greater than 100 µM. It also gave a TGI (OVCAR-4 ovarian) greater than 100 µM, a TGI (CCRF-CEM leukemia) greater than 100 µM and a TGI (COLO 205 colon) greater than 100 µM. It also gave a TGI (SK-MEL-2 melanoma) greater than 100 µM, a TGI (SK-OV-3 ovarian) greater than 100 µM and a TGI (NCI-H226 lung) greater than 100 µM. It also gave a TGI (OVCAR-8 ovarian) greater than 100 µM, a TGI (A549 NSCLC) greater than 100 µM and a TGI (NCI-H460 lung) greater than 100 µM. The TGI (DLD-1 colon) was greater than 100 µM, the TGI (HT29 colon) was greater than 100 µM and the TGI (A498 renal) was greater than 100 µM. For the same compound, the TGI (UO-31 renal) was greater than 100 µM, the TGI (SF-539 CNS) was greater than 100 µM and the TGI (KM12 colon) was greater than 100 µM. It also gave a TGI (SR leukemia) greater than 100 µM, a TGI (MOLT-4 leukemia) greater than 100 µM and a TGI (DMS 273 small cell lung) greater than 100 µM. For the same compound, the TGI (NCI-H23 lung) was greater than 100 µM, the TGI (HCC-2998 colon) was greater than 100 µM and the TGI (TK-10 renal) was greater than 100 µM. It also gave a TGI (OVCAR-3 ovarian) greater than 100 µM, a TGI (SW-620 colon) greater than 100 µM and a TGI (M14 melanoma) greater than 100 µM. For the same compound, the TGI (EKVX NSCLC) was greater than 100 µM, the TGI (K-562 leukemia) was greater than 100 µM and the TGI (HOP-18 NSCLC) was greater than 100 µM. For the same compound, the TGI (HCT-15 colon) was greater than 100 µM, the TGI (SN12C renal) was greater than 100 µM and the TGI (SF-295 CNS) was greater than 100 µM. For the same compound, the TGI (IGROV1 ovarian) was greater than 100 µM, the TGI (HOP-92 NSCLC) was greater than 100 µM and the TGI (LXFL 529 NSCLC) was greater than 100 µM. It also gave a TGI (CAKI-1 renal) greater than 100 µM, a TGI (SF-268 CNS) greater than 100 µM and a TGI (SNB-19 CNS) greater than 100 µM. It also gave a TGI (NCI-H522 lung) greater than 100 µM, a TGI (ACHN renal) greater than 100 µM and a TGI (M19-MEL melanoma) greater than 100 µM. The TGI (SNB-75 CNS) was greater than 100 µM, the TGI (KM20L2 colon) was greater than 100 µM and the TGI (U251 CNS) was greater than 100 µM. For the same compound, the TGI (RXF 393 renal) was greater than 100 µM.
